Here are results for four compounds from ChEMBL document CHEMBL5729699, “Polypeptide compound, pharmaceutical composition, preparation method and application thereof” (2023).

One assay deals with Cytochrome P450 2C9 (Homo sapiens, UniProt P11712). The assay is described as follows: (§1) Inhibition of Cytochrome P450 Oxidase: The human liver microsomes (0.253 mg/mL protein) containing cytochrome P450, test compounds (0.05-50 μM), CYPs substrates (10 μM […], 5 μM diclofenac, 30 μM mephenytoin, 5 μM dextromethorphan hydrobromide, 2 μM midazolam), 1.0 mM NADP were incubated at 37° C. for 10 minutes. Naflavone, sulfafenpyrazole, N-3-benzylnivan, quinidine, and ketoconazole were used as reference inhibitors.
Cytochrome P450 2C9, sequence (P11712 whole entry): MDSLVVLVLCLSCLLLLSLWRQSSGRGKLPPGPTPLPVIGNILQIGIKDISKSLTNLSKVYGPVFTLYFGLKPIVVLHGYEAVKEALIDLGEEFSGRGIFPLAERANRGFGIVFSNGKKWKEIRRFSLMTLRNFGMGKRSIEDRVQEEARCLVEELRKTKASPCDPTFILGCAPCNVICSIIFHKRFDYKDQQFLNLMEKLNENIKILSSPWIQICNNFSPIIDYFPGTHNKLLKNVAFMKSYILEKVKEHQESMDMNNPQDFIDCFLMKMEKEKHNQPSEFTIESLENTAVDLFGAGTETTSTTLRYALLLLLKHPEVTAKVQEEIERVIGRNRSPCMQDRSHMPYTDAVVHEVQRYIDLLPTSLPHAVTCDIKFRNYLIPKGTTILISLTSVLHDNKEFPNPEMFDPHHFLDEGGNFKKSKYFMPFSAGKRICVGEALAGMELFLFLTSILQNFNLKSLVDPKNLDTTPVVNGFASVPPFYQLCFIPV

For the next assay, the target named is Cytochrome P450 2C19 (Homo sapiens, UniProt P33261). Described as §1.
Cytochrome P450 2C19, sequence (P33261 whole entry): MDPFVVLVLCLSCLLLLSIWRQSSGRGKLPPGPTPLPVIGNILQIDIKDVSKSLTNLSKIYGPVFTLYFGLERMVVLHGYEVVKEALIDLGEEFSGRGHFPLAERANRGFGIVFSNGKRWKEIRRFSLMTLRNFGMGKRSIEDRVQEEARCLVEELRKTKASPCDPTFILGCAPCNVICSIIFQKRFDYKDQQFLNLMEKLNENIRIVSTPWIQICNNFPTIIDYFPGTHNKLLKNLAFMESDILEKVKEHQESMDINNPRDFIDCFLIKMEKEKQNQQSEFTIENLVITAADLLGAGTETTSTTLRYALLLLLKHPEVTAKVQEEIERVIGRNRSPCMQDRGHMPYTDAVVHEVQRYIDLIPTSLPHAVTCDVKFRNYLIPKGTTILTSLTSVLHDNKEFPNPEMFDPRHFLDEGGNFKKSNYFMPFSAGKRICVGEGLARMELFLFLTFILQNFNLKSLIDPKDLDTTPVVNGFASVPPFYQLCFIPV
In a further assay the target is T1, Cytochrome P450 1A2 (Homo sapiens, UniProt P05177).
T1 sequence (P05177 whole entry): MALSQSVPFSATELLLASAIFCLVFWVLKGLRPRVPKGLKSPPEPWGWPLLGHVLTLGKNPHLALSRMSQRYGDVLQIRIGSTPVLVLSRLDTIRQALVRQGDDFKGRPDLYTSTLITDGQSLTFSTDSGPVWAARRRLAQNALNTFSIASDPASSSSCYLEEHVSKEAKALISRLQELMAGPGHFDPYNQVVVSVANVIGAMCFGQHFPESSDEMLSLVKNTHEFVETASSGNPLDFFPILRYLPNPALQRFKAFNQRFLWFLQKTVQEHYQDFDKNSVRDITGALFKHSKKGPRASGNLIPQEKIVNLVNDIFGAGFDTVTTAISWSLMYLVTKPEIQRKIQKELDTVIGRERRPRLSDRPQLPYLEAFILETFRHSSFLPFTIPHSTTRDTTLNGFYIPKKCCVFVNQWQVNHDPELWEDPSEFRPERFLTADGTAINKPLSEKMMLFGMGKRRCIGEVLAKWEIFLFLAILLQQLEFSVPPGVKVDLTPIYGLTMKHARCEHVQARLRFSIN
Described as §1.

Another assay concerns the target Cytochrome P450 2D6 (Homo sapiens, UniProt P10635). Described as §1.
The next assay has as its target Cytochrome P450 3A4 (Homo sapiens, UniProt P08684). The description is as §1.
Assay [1] concerns the target Kappa-type opioid receptor (Homo sapiens, UniProt P41145). The assay is described as follows: Agonistic activity of the kappa-opioid receptors: Forskolin can stimulate the release of cAMP from HEK293 cells with high expression of human κ (or μ, or δ)-opioid receptors. […] The efficacy of the compounds of the invention as κ-opioid receptor agonists was determined by measuring the ability of the compounds of Examples to inhibit adenylate cyclase activity.Cell culture: The HEK293 cell line highly expressing human κ (or μ, or δ)-opioid receptor were cultured in DMEM medium containing 10% FBS.Stimulation: the test compound was 4-fold diluted in a gradient manner to obtain 10 concentrations, and 50 nl of each was transferred to a 384-well plate, and then 10 nl Forskolin was added; the cells were digested, re-suspended, and counted; and then 10 μl of cell suspension (5×10^5 cell/mL) was added, and the cells were mixed gently, and incubated at 23° C. for 60 minutes.Detection: cAMP Assay Kit (Cisbio) was used, cAMPD2 and Anti-cAMP conjugate were added, and the resultant mixture was incubated for 1 h at room temperature. The plate was read using envision (Perkin Elmer) and EC50 was obtained by means of fitting with a four-parameter equation. The format is cell-based.

Molecules are shown by their SMILES.

Cytochrome P450 2D6, sequence (P10635 whole entry): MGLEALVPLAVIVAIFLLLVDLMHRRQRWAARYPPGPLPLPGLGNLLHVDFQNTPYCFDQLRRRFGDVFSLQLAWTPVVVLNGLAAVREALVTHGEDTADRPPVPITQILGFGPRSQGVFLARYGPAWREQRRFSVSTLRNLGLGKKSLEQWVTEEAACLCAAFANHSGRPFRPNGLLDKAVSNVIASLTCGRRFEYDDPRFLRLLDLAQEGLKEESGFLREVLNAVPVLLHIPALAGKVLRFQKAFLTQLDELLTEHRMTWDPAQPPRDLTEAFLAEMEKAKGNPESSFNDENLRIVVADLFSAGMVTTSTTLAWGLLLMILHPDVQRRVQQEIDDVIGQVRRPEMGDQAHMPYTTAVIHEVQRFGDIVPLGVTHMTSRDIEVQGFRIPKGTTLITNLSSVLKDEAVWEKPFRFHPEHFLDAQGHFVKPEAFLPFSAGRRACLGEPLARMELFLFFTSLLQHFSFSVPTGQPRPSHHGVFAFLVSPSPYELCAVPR
Cytochrome P450 3A4, sequence (P08684 whole entry): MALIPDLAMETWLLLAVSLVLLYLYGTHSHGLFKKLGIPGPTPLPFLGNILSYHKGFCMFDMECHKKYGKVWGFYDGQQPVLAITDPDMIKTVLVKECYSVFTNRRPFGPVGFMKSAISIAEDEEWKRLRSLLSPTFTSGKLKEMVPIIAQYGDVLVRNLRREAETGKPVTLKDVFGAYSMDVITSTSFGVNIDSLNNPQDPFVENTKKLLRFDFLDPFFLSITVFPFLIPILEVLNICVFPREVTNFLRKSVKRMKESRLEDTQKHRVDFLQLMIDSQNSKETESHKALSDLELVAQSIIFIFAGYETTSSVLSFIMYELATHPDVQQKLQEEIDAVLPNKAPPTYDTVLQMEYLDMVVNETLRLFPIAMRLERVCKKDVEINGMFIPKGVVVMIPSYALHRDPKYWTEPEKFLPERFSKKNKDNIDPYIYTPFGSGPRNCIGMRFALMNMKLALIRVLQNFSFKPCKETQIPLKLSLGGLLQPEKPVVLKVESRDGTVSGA
Kappa-type opioid receptor, sequence (P41145 whole entry): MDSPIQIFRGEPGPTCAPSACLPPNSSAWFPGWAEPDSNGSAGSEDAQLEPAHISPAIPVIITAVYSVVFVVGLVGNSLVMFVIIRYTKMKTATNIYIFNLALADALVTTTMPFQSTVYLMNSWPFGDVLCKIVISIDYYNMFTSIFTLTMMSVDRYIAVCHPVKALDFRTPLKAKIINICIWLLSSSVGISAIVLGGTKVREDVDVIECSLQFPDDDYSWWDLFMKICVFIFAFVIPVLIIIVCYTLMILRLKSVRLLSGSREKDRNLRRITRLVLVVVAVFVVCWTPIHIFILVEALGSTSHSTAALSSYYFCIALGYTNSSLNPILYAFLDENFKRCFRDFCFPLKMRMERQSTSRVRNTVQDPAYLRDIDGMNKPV

A word on the IC50: it is the concentration needed to halve the response being measured. For `CC(C)C[C@@H](NC(=O)[C@@H](Cc1ccccc1)NC(=O)[C@H](N)Cc1ccccc1)C(=O)N[C@H](CCCCN)C(=O)N1CCC(N)(B(O)O)CC1`, the IC50 at Cytochrome P450 2C9, on Cytochrome P450 2C19, at Cytochrome P450 1A2, on Cytochrome P450 2D6 and at Cytochrome P450 3A4 was above 50 µM in each case.
In the case of `CC(C)C[C@@H](NC(=O)[C@@H](Cc1ccccc1)NC(=O)[C@H](N)Cc1ccccc1)C(=O)N[C@H](CCCCN)C(=O)N1CC[C@@H](B(O)O)C1`, the concentration for half-maximal inhibition (IC50) at Cytochrome P450 2C9, at Cytochrome P450 2C19, at Cytochrome P450 1A2, at Cytochrome P450 2D6 and at Cytochrome P450 3A4 was above 50 µM each time.
For `CC(C)C[C@@H](NC(=O)[C@@H](Cc1ccccc1)NC(=O)[C@H](N)Cc1ccccc1)C(=O)N[C@H](CCCCN)C(=O)N1CC=C(B(O)O)C1`, the IC50 on Cytochrome P450 2C9, on Cytochrome P450 2C19, on Cytochrome P450 1A2, on Cytochrome P450 2D6 and at Cytochrome P450 3A4 was above 50 µM each time.
The term EC50 denotes the concentration needed to bring the measured effect to its halfway point. As to `CC(C)C[C@@H](NC(=O)[C@@H](Cc1ccccc1)NC(=O)[C@H](N)Cc1ccccc1)C(=O)N[C@H](CCCCN)C(=O)N1CCC[C@H]1B(O)O`, in assay [1], the half-maximal effective concentration (EC50) came to 1 pM. Further, the half-inhibitory concentration (IC50) at Cytochrome P450 2C9, at Cytochrome P450 2C19, at Cytochrome P450 1A2, on Cytochrome P450 2D6 and at Cytochrome P450 3A4 was above 50 µM throughout.
